Molecules are shown by their SMILES. Like-named read-outs stand apart in the source and are kept apart here. Starred links: 1 amine or outer side, 2 acyl side, 3 side chain; linkers in the order of their positions; H or OH if unused. Positions of bridges follow the written chain, without caps; N, C: chain ends. Non-standard residues stand in square brackets, D forms with d. Residues, ends and D or L forms follow the SMILES beside them. Chains are numbered I, II in the order given. Hexamethylenediamine = C(CCCN[*:2])CCN[*:1]; Dip = N[C@H](C(=O)O)C(c1ccccc1)c1ccccc1; Chg = N[C@H](C(=O)O)C1CCCCC1; NMeA = CN[C@@H](C)C(=O)O

One test addresses T1, endogenous XIAP (Homo sapiens, UniProt P98170).
T1 construct: knock-in a bioluminescent tag at endogenous loci of XIAP; endogenous in cells; host or cells: BE(2)-C and KELLY cells, CRISPR/Cas9 HiBiT knock-in, stably transfected with LgBiT vector (Promega)
Description: Degradation of endogenous luciferase-tagged XIAP (HiBiT/LgBiT), real-time luminescence. The note with it: for DC50: 8 hours, read-out: DC50, degradation curve at 8h. Type of test: cell-based. On the technique in general: With HiBiT, luminescence reflects the tagged protein that the partner subunit can reach.

A further test relates to HS5 (bone marrow origin). The experiment in a line: RealTime-Glo MT cell viability assay, noncancerous normal cells. Type of test: cell-based, Human. As to the method:
Cell viability was measured in real time using RealTime-Glo MT Cell Viability Assay as according to manufacturer's instructions from Promega. Cells were seeded at 1 × 10^4 cells per well and treated with a range of doses of indicated antagonists, followed by continuous bioluminescence reading every 24 hours for 3 days using luminescent plate reader, Varioskan (SkanIT software). IC50 was determined using GraphPad Prism software.
To determine their efficacy in neuroblastoma, a panel of neuroblastoma cell lines including neuroblastoma patient-derived cell lines and noncancerous normal tissue-derived cell lines were treated with increasing doses of each antagonist (0–100 µmol/L), followed by real-time measurement of cell viability every 24 for 72 hours.
To evaluate this, noncancerous normal tissue-derived cell lines THLE3 and HS5 were utilized to evaluate toxicity and tolerability.

T1 sequence (P98170 whole entry): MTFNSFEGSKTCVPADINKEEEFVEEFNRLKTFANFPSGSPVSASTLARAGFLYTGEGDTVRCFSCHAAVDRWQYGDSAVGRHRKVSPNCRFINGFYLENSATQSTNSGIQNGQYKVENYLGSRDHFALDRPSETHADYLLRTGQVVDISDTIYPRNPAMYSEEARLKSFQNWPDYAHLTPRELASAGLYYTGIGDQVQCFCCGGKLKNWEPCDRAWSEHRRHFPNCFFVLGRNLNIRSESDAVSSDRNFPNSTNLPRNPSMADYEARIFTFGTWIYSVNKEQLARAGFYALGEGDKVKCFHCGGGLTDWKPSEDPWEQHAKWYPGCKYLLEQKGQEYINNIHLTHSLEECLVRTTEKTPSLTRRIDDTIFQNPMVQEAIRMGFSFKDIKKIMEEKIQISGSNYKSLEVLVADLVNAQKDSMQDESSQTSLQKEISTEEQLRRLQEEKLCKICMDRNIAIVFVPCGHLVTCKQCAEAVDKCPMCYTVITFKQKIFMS
Description for endogenous XIAP: B, Degradation profiles of endogenous XIAP in response to A4 or BV6 treatment of neuroblastoma cells, BE(2)-C (top) and KELLY (bottom). Cells were treated with increasing dose of A4 or BV6 and luminescence was measured continuously in real time for 2 hours. Luminescence values were normalized to DMSO vehicle control and degradation profiles were generated using GraphPad Prism. Values were expressed as mean ± SD of three independent experiments conducted in duplicates.
(A) Degradation profiles of endogenous XIAP in response to A4 treatment of neuroblastoma cells, BE(2)-C and KELLY. (B) Degradation profiles of endogenous XIAP in response to BV6 treatment of neuroblastoma cells, BE(2)-C and KELLY. […] Cells were treated with increasing dose of A4 or BV6 and luminescence was measured continuously in real-time for 2 hours (A4) or 8 hours (BV6), respectively. Luminescence values were normalized to DMSO vehicle control and degradation profiles were generated using GraphPad Prism. Values were expressed as mean ± SD of three independent experiments.

As to `CN[C@@H](C)C(=O)N[C@H](C(=O)N1CCC[C@H]1C(=O)N[C@H](C(=O)NCCCCCCNC(=O)[C@@H](NC(=O)[C@@H]1CCCN1C(=O)[C@@H](NC(=O)[C@H](C)NC)C1CCCCC1)C(c1ccccc1)c1ccccc1)C(c1ccccc1)c1ccccc1)C1CCCCC1` [BV6] (I: H-[NMeA][Chg]P[Dip] / II: H-[NMeA][Chg]P[Dip]; linker I:C-II:C via Hexamethylenediamine), on endogenous XIAP (2 hours' exposure, BE(2)-C and KELLY), the “degradation of XIAP” value is reported as “minimal degradation of XIAP”. In addition, the DC50 (in general, the concentration giving 50% degradation) is 44.5 µM on endogenous XIAP (BE(2)-C) and 32 µM on endogenous XIAP (KELLY). Moreover, the IC50 (as a rule, the concentration that gives 50% inhibition) in the test with HS5 (bone marrow origin) (HS5, 24 hours) amounted to 6.1 µM; in the test on HS5 (bone marrow origin) (HS5, 48 hours) it was 4.4 µM; in the test on HS5 (bone marrow origin) (HS5, 72 hours), 3.6 µM.

These data come from paper PMC10681007, “Targeted Degradation of XIAP is Sufficient and Specific to Induce Apoptosis in MYCN-overexpressing High-risk Neuroblastoma” (Cancer Research Communications, 2023).
